Experimental findings from patent US20260274814A1, “THIENYL COMPOUNDS FOR THE TREATMENT OF A CENTRAL NERVOUS SYSTEM DISEASE OR DISORDER” (Coreterra Therapeutics, Inc., priority 2023, published 2026) are described below.

Where a name gives a salt, the structure may show the parent alone. Read-outs that look alike come from different tables or passages of the source. Bounds are passed on as bounds.

The assay has as its system mice. Briefly: Neuropharmacological Assay (SmartCube): automated behavioral signature of compound-treated mice compared with a database of reference drug classes. As to conditions: for MED / minimal effective dose: minimal effective dose: dose having 45% or more total activity in SmartCube; for minimal effective dose: Mus musculus, ip, read-out: MED. It counts as in vivo. The source says:
Neurosci. 2011 Sep. 9; 5: 103 (doi: 10.3389/fnins.2011.00103) (“Roberds”). As reported in Roberds, because psychiatric diseases generally result from disorders of cell-cell communication or circuitry, intact systems are useful in detecting improvement in disease-relevant endpoints. These endpoints are typically behavioral in nature, often requiring human observation and interpretation. To facilitate testing of multiple compounds for behavioral effects relevant to psychiatric disease, PsychoGenics, Inc. (Tarrytown, NY, “PGI”) developed SmartCube™ an automated system in which behaviors of compound-treated mice are captured by digital video and analyzed with computer algorithms. (D. Brunner et al. Drug Discov. Today 2002, 7:S107-S112). PGI Analytical Systems uses data from SmartCube™ to compare the behavioral signature of a test compound to a database of behavioral signatures obtained using a large set of diverse reference compounds. (The composition of the database as well as validation of the method is further described in Roberds). In this way, the neuropharmacological effects of a test compound can be predicted by similarity to major classes of compounds, such as antipsychotics, anxiolytics and antidepressants.
The SmartCube™ system produces an activity signature indicating the probability that the activity of the test compound at the administered dose matches a given class of neuropharmacological agents. (See, e.g., Roberds, FIGS. 2 and 3). The test compound is simultaneously compared against multiple classes of agents; thus, a separate probability is generated for each behavioral effect measured (e.g., anxiolytic activity, analgesic activity, etc.). In table 2 below, these probabilities are reported for each behavioral effect measured as described in Table 1 below.
Provided compounds were dissolved in a mixture of Pharmasolve™ (N-methyl-2-pyrrolidone), polyethylene glycol and propylene glycol, and were injected i.p. 15 min. before the behavioral test. For each compound, injections were administered at 3 different doses. For each behavioral effect measured, results for the 3.0 mg/kg dose are presented. The potency of many of the compounds in the table was also determined in the SmartCube™ system. Test compounds were routinely examined at dose levels of 0.3, 1, 3 and 10 mg per kg (mpk), although the dose range was increased or decreased, if necessary, to obtain a full dose response curve. A compound's minimal effective dose (MED) is a measure of the compound's potency. The MED was defined as the dose (in mpk) having 45% or more total activity in SmartCube. If only one dose was tested, that dose is shown in the MED column of Table 2 even though the dose is not known to be the MED.

Where [1] appears, read: probability that activity matches this class of agents, 3.0 mg/kg i.p., 15 min before test.
Where [2] appears, read: probability that activity matches this class of agents, 3.0 mg/kg i.p., 15 min before test, hydrochloride, 3 mg/kg.
[3] abbreviates: SmartCube class probability, 3.0 mg/kg i.p., 15 min before test.
The mark [4] stands for this setting: SmartCube class probability, 3.0 mg/kg i.p., 15 min before test, 3 mg/kg.
Setting [5] is: i.p., if only one dose tested, that dose is shown.
[6] abbreviates: SmartCube probability class, 3.0 mg/kg dose, i.p. 15 min before the behavioral test.
The mark [7] stands for this setting: SmartCube class probability, 3.0 mg/kg i.p., 15 min before test, hydrochloride, 3 mg/kg.

`NC1COc2ccsc2C1` (single isomer, unassigned) [Compound 136, 6,7-dihydro-5H-thieno[3,2-b]pyran-6-amine hydrochloride]: the “MED (minimal effective dose)” value (dose having 45% or more total activity in SmartCube, i.p., if only one dose was tested, that dose is shown, hydrochloride) is listed as greater than 3 mpk. Under setting [1], the AD result is given as “ND (^ <4%)”, the AG result is “ND (^ <4%)”, the AN entry is recorded as “ND (^ <4%)” and the AX entry was “ND (^ <4%)”. Under setting [1], the CE result was “ND (^ <4%)”, the HL result is recorded as “ND (^ <4%)”, the MS result is on record as “ND (^ <4%)” and the PS entry was “ND (^ <4%)”. Under setting [2], the AP result is on record as “ND (^ <4%)”, the SH result is listed as “ND (^ <4%)” and the UK entry is “+ (≥4%)”.
As for `CC1(N2CCCC2)CCc2ccsc2C1` (single isomer, unassigned) [Compound 276, 1-(6-methyl-4,5,6,7-tetrahydrobenzo[b]thiophen-6-yl)pyrrolidine], under setting [3], the AD entry is listed as “ND (^ <4%)”, the AG entry was “ND (^ <4%)”, the AN entry is recorded as “ND (^ <4%)” and the AP entry is recorded as “ND (^ <4%)”. Moreover, under setting [3], the CE result is “ND (^ <4%)”, the HL result is on record as “ND (^ <4%)”, the MS entry is given as “ND (^ <4%)” and the SH entry is listed as “ND (^ <4%)”. For the same molecule, the UK entry under setting [3] is on record as “ND (^ <4%)”. Moreover, under setting [4], the AX entry is “++++ (≥74%)” and the PS entry is given as “ND (^ <4%)”. Also, under setting [5], the MED is 3 mpk.
Consider `N#Cc1scc2c1CC(N)CC2` (single isomer, unassigned) [Compound 312, 6-amino-4,5,6,7-tetrahydro-2-benzothiophene-1-carbonitrile hydrochloride], for which, under “i.p., if only one dose was tested, that dose is shown”, the minimal effective dose turned out to be 3 mg/kg. For the same molecule, under setting [6], the AD entry is reported as “ND (^ <4%)”, the AG entry is recorded as “ND (^ <4%)”, the AN result is “ND (^ <4%)” and the AP entry is on record as “ND (^ <4%)”. Also, under setting [6], the AX result was “ND (^ <4%)”, the CE result is “ND (^ <4%)”, the HL entry was “ND (^ <4%)” and the MS result is “ND (^ <4%)”. For the same molecule, under setting [6], the PS entry is listed as “ND (^ <4%)” and the SH entry was “ND (^ <4%)”. Further, the UK result (SmartCube probability class, 3.0 mg/kg dose, i.p. 15 min before the behavioral test, hydrochloride, 3 mg/kg) is on record as “+++ (≥49%)”.
As to `CNC1CCc2c(Cl)csc2C1` (single isomer, unassigned) [Compound 199, 3-chloro-N-methyl-4,5,6,7-tetrahydrobenzothiophen-6-amine hydrochloride], under setting [3], the AD entry was “ND (^ <4%)”, the AG result is “ND (^ <4%)”, the AN entry is recorded as “ND (^ <4%)” and the AX entry was “ND (^ <4%)”. Also, under setting [3], the CE entry was “ND (^ <4%)”, the MS result is on record as “ND (^ <4%)”, the PS result is listed as “ND (^ <4%)” and the SH result is on record as “ND (^ <4%)”. In addition, the UK entry under setting [3] was “ND (^ <4%)”. Under setting [7], the AP result is “ND (^ <4%)” and the HL entry is listed as “+ (≥4%)”. This molecule came in with an MED under setting [5] of less than 3 mpk.
With `CNC1COc2c(C3CC3)csc2C1` (stereo not drawn) [Compound 235, 3-cyclopropyl-N-methyl-6,7-dihydro-5H-thieno[3,2-b]pyran-6-amine hydrochloride], under setting [5], the minimal effective dose was determined as 3 mg/kg. Moreover, under setting [3], the AD result was “++++ (≥74%)”, the AG result was “ND (^ <4%)”, the AN entry was “ND (^ <4%)” and the AP result is listed as “ND (^ <4%)”. Also, under setting [3], the AX result is recorded as “ND (^ <4%)”, the CE entry was “ND (^ <4%)”, the HL entry is reported as “ND (^ <4%)” and the MS entry is “ND (^ <4%)”. Under setting [3], the PS result is recorded as “ND (^ <4%)”, the SH entry was “ND (^ <4%)” and the UK result is listed as “ND (^ <4%)”.
